Bounds are passed on as bounds.

A short description of data set [1]: Pharmacokinetic study of YCHD components and phase II metabolites in ANIT-induced cholestatic rats (UHPLC-MS/MS, sulfatase enzymolysis). It is filed as in vivo, rat. Conditions: for AUC(0-∞) / Ka: Model group (ANIT 50 mg/kg cholestatic rats); for Cmax / Tmax / CL/F / MRT inf / Vd/F / half-life: rat, po, 12 g/kg; for CL/F: read-out: CLz/F; for MRT inf: read-out: MRT (0-∞) (converted); for Vd/F: read-out: Vz/F; for half-life: read-out: t1/2z; for in vivo absorption and excretion processes in cholestatic rats (comparison of Ka and Ke): versus normal rats, oral YCHD 12 g/kg. On the procedure:
(§1) To explore the pharmacokinetic properties of YCHD following intragastric administration in rats, a rapid and sensitive method involving the use of UHPLC-MS/MS (Agilent 6460 series, Agilent Technologies, Santa Clara, CA, United States) was developed and validated for the simultaneous quantification of 10 active components of rat plasma. The quantification was conducted in ESI negative ionization mode, and the mass spectrometry conditions were as follows: capillary voltage, 3500 V; gas flow, 12 L/min; nebulizer, 40 psi; gas temperature, 350°C; and delta EMV (-), 400.
(§2) To each 50 μL plasma sample, 10 μL of internal standard solution (paeoniflorin, 1000 ng/mL) and 300 μL of a mixed solution of methanol and acetonitrile (v/v, 1:1; containing 1% formic acid) were added. Subsequently, the solution was vortex mixed for 5 min. After centrifugation at 15,000 rpm for 5 min, the supernatant was transferred completely into a tube, before being evaporated under N2 at 40°C. The residue was then dissolved in 50 μL of 50% methanol–water (v/v, 1:1) through vortexing for 5 min, after centrifugation at 15,000 rpm for 10 min. Finally, 5 μL of the supernatant sample was injected into the UHPLC-MS/MS system for analysis.
The rats were randomly divided into two groups (n = 5 for each group). […] The blood samples were centrifuged at 4000 rpm for 10 min, and the supernatant plasma was harvested. Plasma samples (50 μL) were immediately processed as outlined in Section “Chromatographic and Mass Spectrometry Conditions.”
(§3) Additional plasma samples (50 μL) were enzymatically hydrolyzed with 50 μL of enzyme solution (65.86 mg of sulfatase, dissolved in 2 mL of sodium acetate buffer, pH 5.0) for phase II metabolite quantification, in accordance with our previous study ([Ding et al., 2012]). After being vortex mixed for 5 min, the mixture was incubated at 37°C for 30 min and then returned to room temperature. Subsequently, the samples were processed as outlined in Section “Chromatographic and Mass Spectrometry Conditions” for UHPLC-MS/MS analysis. During routine analysis, each analytical run included six blank plasma samples, a set of calibration samples, a set of QC samples, and unknowns.
(§4) All data are presented as mean ± SD. A one-way analysis of variance was used to compare data between two groups using SPSS (Version 21.0). The differences were considered to be statistically significant when p < 0.05 and highly significant when p < 0.01 or p < 0.001. Pharmacokinetic data analysis was performed using DAS 2.1.1 software (Mathematical Pharmacology Professional Committee of China, Shanghai, China).
The specific contents of the phase II metabolites of these components were detected indirectly by evaluating the content difference of their prototypes in samples after enzymolysis and before enzymolysis
(§5) CG = Ca −[MG × (CGG/MGG + CGe/MGe)]
Ca, CGG, and CGe represent the concentration of genipin, genipin-1-β-D-gentiobioside, and geniposide after enzymolysis of sulfatase, respectively. MG, MGG-, and MGe represent the mass of genipin, genipin-1-β-D-gentiobioside, and geniposide, respectively.

Data set [2] is described as follows: Pharmacokinetic study of YCHD components and phase II metabolites in normal rats (UHPLC-MS/MS, sulfatase enzymolysis). Conditions: plasma; for Tmax / Cmax / MRT inf / half-life / Vd/F / CL/F: rat; for MRT inf: read-out: MRT (0-∞) (converted); for half-life: read-out: t1/2z; for Vd/F: read-out: Vz/F; for CL/F: read-out: CLz/F. It is filed as in vivo, rat. On the procedure: as §1, with “400. A 5 μL extraction sample was injected into the column (Agilent SB-C18 column, 2.1 mm × 50 mm, 1.8 μm) and eluted at 0.4 mL/min with a gradient elution of water (with 0.4% v/v formic acid) (A) and acetonitrile (B) (0–3 min, 5–60% B; 3–5 min, 60–90% B; 5–5.1 min, 90–5% B; and re-equilibration for 3 min).” for “400.”
as §2
The rats were randomly divided into two groups (n = 5 for each group). […] After 24 h, the two groups of rats received a single oral dose of YCHD (12 g/kg). Blood was collected in heparinized tubes at 5, 15, 30, 45, 60, 120, 240, 360, 480, 720, and 1440 min after administration. The blood samples were centrifuged at 4000 rpm for 10 min, and the supernatant plasma was harvested. Plasma samples (50 μL) were immediately processed as outlined in Section “Chromatographic and Mass Spectrometry Conditions.”
as §3, §4
After sulfatase-aided enzymolysis, all the phase II metabolites could transform into their prototypes, including rhein, emodin, genipin, and capillarisin. The specific contents of the phase II metabolites of these components were detected indirectly by evaluating the content difference of their prototypes in samples after enzymolysis and before enzymolysis
as §5
Ca, CGG, and CGe represent the concentration of genipin, genipin-1-β-D-gentiobioside, and geniposide after enzymolysis of sulfatase, respectively. MG, MGG-, and MGe represent the mass of genipin, genipin-1-β-D-gentiobioside, and geniposide, respectively. The pharmacokinetic curves of phase II metabolites are illustrated in Figure 4B.

Setting [3] is: single oral YCHD 12 g/kg, plasma.
Setting [4] is: Control group (normal rats), single oral YCHD 12 g/kg.
[5] abbreviates: Sprague Dawley, po, 12 g/kg, in normal and cholestatic rats after oral administration of YCHD.
[6] abbreviates: po, 12 g/kg, Control group (normal rats), single oral YCHD 12 g/kg.
Where [7] appears, read: Sprague Dawley, Control group (normal rats), single oral YCHD 12 g/kg.
The mark [8] stands for this setting: in vivo, Control group (normal rats), single oral YCHD 12 g/kg.
The mark [9] stands for this setting: Sprague Dawley, in vivo, Control group (normal rats), single oral YCHD 12 g/kg.

For `CC(=O)c1ccc(O)cc1` [4-hydroxyacetophenone, 4-Hydroxyacetophenone], in data set [1] (setting [3]), the “AUC(0-∞)” value amounted to 113028.5 ± 56412.0 µg·min/L and the Ka was 202.7 ± 235.9 min⁻¹. Besides, in data set [1] (plasma), the Cmax came to 676 ± 85 ng/mL, the time of peak concentration (Tmax) was 0.25 h, the CL/F was determined as 215 ± 37 mL/min/kg and the MRT inf was 18.6 h. In addition, in data set [1] (plasma), the Vd/F is 429 ± 287 L/kg and the half-life turned out to be 25.9 ± 21 h. In addition, in data set [1] (single oral YCHD 12 g/kg), the “AUC(0-∞) reduced by, cholestatic model rats compared with normal rats” value was found to be 41.2% and the “Cmax reduced by, cholestatic model rats compared with normal rats” value (from here on “Cmax reduced by, cholestatic model rats”) is given as 57.2%. Besides, in data set [1], the “in vivo absorption and excretion processes in cholestatic rats (comparison of Ka and Ke)” value is “inhibited”. For the same compound, in data set [2] (setting [4]), the “AUC(0-∞)” value is 192358.2 ± 102858.3 µg·min/L, the Ka is 406.1 ± 333.9 min⁻¹, the maximum concentration (Cmax) came to 1580 ± 133 ng/mL and the MRT inf is 4.82 h. For the same compound, the half-life in data set [2] (setting [4]) turned out to be 13.8 ± 13.6 h. The Tmax in data set [2] (setting [5]) is ≤ 0.45 h. For the same compound, in data set [2] (setting [6]), the Tmax is 0.25 h.
Regarding `COC(=O)C1=CO[C@@H](O[C@@H]2O[C@H](CO[C@@H]3O[C@H](CO)[C@@H](O)[C@H](O)[C@H]3O)[C@@H](O)[C@H](O)[C@H]2O)[C@@H]2C(CO)=CC[C@H]12` [genipin-1-β-D-gentiobiodide, Genipin-1-β-D-gentiobiodide], in data set [1] (setting [3]), the “AUC(0-∞)” value came out at 31749.4 ± 15408.0 µg·min/L and the Ka stood at 106.8 ± 25.5 min⁻¹. In addition, in data set [1] (Sprague Dawley, plasma), the Vd/F turned out to be 280 ± 254 L/kg and the half-life was 2.81 ± 3.01 h. Also, in data set [1] (plasma), the peak concentration (Cmax) came to 63.9 ± 10.1 ng/mL, the Tmax is 0.25 h, the CL/F was 1260 ± 165 mL/min/kg and the MRT inf was 3.14 h. Besides, in data set [1] (single oral YCHD 12 g/kg), the “AUC(0-∞) reduced by, cholestatic model rats compared with normal rats” value came out at 17.7% and the “Cmax reduced by, cholestatic model rats” value stood at 39.5%. Further, in data set [2] (setting [4]), the “AUC(0-∞)” value turned out to be 38557.0 ± 20175.1 µg·min/L, the Ka is 95.5 ± 16.2 min⁻¹, the peak concentration (Cmax) is 106 ± 3.9 ng/mL and the CL/F came out at 1040 ± 56 mL/min/kg. For the same compound, the MRT inf in data set [2] (setting [4]) was 2.13 h. Besides, the time to peak (Tmax) in data set [2] (setting [5]) is ≤ 0.45 h. Further, in data set [2] (setting [7]), the Vd/F stood at 170 ± 52.3 L/kg and the half-life turned out to be 1.93 ± 0.538 h. Further, the Tmax in data set [2] (setting [6]) is 0.35 h.
For `O=C(O)c1cc(O)c2c(c1)C(=O)c1cccc(O)c1C2=O` [Rhein], in data set [1] (setting [3]), the “AUC(0-∞)” value is 172453.1 ± 108249.8 µg·min/L and the Ka is 478.1 ± 200.1 min⁻¹. Also, in data set [1] (plasma), the Cmax amounted to 422 ± 87.5 ng/mL, the Tmax is 0.25 h, the CL/F is 221 ± 84 mL/min/kg and the MRT inf is 2.83 h. Also, in data set [1] (plasma), the Vd/F is 41.4 ± 20.8 L/kg and the half-life stood at 2.19 ± 0.812 h. In data set [1] (single oral YCHD 12 g/kg), the “AUC(0-∞) reduced by, cholestatic model rats compared with normal rats” value is on record as 80.9% and the “Cmax reduced by, cholestatic model rats” value is 86.1%. Moreover, in data set [1], the “in vivo absorption and excretion processes in cholestatic rats (comparison of Ka and Ke)” value was “inhibited”. In addition, in data set [2] (setting [4]), the “AUC(0-∞)” value is 874792.3 ± 503744.0 µg·min/L, the Ka amounted to 4443.6 ± 454.1 min⁻¹, the Cmax is 3040 ± 397 ng/mL and the CL/F is 41 ± 6 mL/min/kg. In data set [2] (setting [4]), the MRT inf is 2.01 h, the Vd/F was 3.79 ± 0.53 L/kg and the half-life was found to be 1.06 ± 0.00833 h. In data set [2] (setting [5]), the time to peak (Tmax) was ≤ 0.45 h. Besides, in data set [2] (setting [6]), the time to peak (Tmax) was 0.25 h.
As to `O=C(O)C1=CO[C@@H](O[C@@H]2O[C@H](CO)[C@@H](O)[C@H](O)[C@H]2O)[C@@H]2C(CO)=CC[C@H]12` [Geniposidic acid], in data set [1] (setting [3]), the “AUC(0-∞)” value was 3007701.6 ± 1408367.9 µg·min/L and the Ka was 41280.6 ± 37036.2 min⁻¹. For the same compound, in data set [1] (Sprague Dawley, plasma), the Vd/F came out at 4990 ± 1180 L/kg and the half-life is 5.23 ± 1.44 h. Further, in data set [1] (plasma), the peak concentration (Cmax) worked out at 1690 ± 251 ng/mL, the time of peak concentration (Tmax) is 4 h and the MRT inf is 9.5 h. Moreover, in data set [1] (single oral YCHD 12 g/kg), the “AUC(0-∞) increased by, cholestatic model rats compared with normal rats” value is reported as 85.5% and the “Cmax increased by, cholestatic model rats compared with normal rats” value came to 153.7%. The “in vivo absorption and excretion processes in cholestatic rats (comparison of Ka and Ke)” value in data set [1] is recorded as “significantly enhanced”. For the same compound, in data set [2] (setting [4]), the “AUC(0-∞)” value is 1374849.8 ± 734718.1 µg·min/L, the Ka was found to be 11255.3 ± 11024.4 min⁻¹, the Cmax was 449 ± 34.2 ng/mL and the CL/F is 30 ± 4 mL/min/kg. In data set [2] (setting [4]), the MRT inf was 5.93 h. In addition, in data set [2] (setting [7]), the Vd/F was determined as 8.6 ± 3.2 L/kg and the half-life was found to be 3.23 ± 0.755 h. Besides, the Tmax in data set [2] (setting [8]) was 4.4 h.
Regarding `COC(=O)C1=COC(OC2OC(CO)C(O)C(O)C2O)C2C(CO)=CC(O)C12` (stereo not drawn) [Scandoside methyl ester], in data set [1] (setting [3]), the “AUC(0-∞)” value turned out to be 300942.4 ± 177466.0 µg·min/L and the Ka was 22.6 ± 38.8 min⁻¹. Also, in data set [1] (Sprague Dawley, in vivo), the maximum concentration (Cmax) is 93.8 ± 13.7 ng/mL, the time to peak (Tmax) is 4.4 h, the CL/F came to 98 ± 16 mL/min/kg and the MRT inf is 16.7 h. For the same compound, in data set [1] (in vivo), the Vd/F came out at 95.6 ± 26.6 L/kg and the half-life was 11.5 ± 3.28 h. Further, the “Cmax reduced by, cholestatic model rats” value in data set [1] (single oral YCHD 12 g/kg) is listed as 26.3%. Further, in data set [1], the “in vivo absorption and excretion processes in cholestatic rats (comparison of Ka and Ke)” value is given as “inhibited”. Further, in data set [2] (setting [4]), the “AUC(0-∞)” value was determined as 233687.2 ± 127559.1 µg·min/L and the Ka is 477.5 ± 133.9 min⁻¹. Moreover, in data set [2] (setting [9]), the Cmax came out at 127 ± 8.9 ng/mL, the time to peak (Tmax) is 0.35 h, the CL/F worked out at 184 ± 33 mL/min/kg and the MRT inf was 6.08 h. Also, in data set [2] (setting [8]), the Vd/F worked out at 62 ± 30.8 L/kg and the half-life came to 3.82 ± 1.76 h.

Source of the values: paper PMC5962729 (Frontiers in Pharmacology, 2018).
